Measurements from patent US11517571B2, “Use of kinase inhibitors to manage tuberculosis and other infectious diseases” (priority 2015, dated 2022).

What was measured:
[1] = system: Mtb within infected macrophages; experiment: Mtb in infected macrophages: bacterial load and phagosome-to-lysosome translocation; assay type: cell-based
[2] = system: mycobacterium; experiment: Mice infected with mycobacterium, CFU in the spleen; assay type: in vivo; details: 7 days p.i., FIG. 2
Method: Mice infected with mycobacterium were administered […], rifabutin (2.5 mg/kg/day) alone, and/or a combination of both. CFU in the spleen were determined 7 days (p.i.).

[3] = system: mycobacterium; experiment: In vivo studies with animals infected with mycobacterium
[4] = system: Mtb; experiment: Rhesus macaque latent TB reactivated by SIV; assay type: in vivo, Rhesus macaques; details: then SIV
[5] = in vivo
[6] = target: c-Kit (Homo sapiens, UniProt P10721); details: in vivo
c-Kit, sequence (P10721 26-976): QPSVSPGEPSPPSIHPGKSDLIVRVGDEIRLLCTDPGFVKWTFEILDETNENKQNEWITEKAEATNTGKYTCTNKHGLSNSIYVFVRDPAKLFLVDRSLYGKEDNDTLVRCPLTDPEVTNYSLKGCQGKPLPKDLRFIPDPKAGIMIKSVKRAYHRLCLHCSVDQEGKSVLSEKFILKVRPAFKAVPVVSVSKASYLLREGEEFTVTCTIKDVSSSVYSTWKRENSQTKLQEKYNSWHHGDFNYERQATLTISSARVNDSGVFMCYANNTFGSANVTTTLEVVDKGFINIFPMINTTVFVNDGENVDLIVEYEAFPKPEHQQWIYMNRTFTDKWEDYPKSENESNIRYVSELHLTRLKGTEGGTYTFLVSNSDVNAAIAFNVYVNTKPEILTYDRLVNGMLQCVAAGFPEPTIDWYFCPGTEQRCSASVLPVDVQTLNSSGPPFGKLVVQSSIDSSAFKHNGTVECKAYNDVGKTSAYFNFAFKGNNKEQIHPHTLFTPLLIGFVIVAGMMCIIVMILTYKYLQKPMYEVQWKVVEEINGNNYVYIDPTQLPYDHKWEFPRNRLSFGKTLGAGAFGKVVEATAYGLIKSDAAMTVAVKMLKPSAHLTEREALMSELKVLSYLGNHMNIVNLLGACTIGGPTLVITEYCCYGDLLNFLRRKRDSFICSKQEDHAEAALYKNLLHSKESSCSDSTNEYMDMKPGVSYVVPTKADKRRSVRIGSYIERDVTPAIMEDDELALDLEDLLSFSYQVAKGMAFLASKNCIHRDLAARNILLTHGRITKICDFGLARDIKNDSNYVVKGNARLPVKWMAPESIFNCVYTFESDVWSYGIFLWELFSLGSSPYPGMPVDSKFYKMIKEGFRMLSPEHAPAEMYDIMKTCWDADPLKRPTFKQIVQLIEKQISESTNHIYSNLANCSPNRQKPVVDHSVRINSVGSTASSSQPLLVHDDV

[7] = Drug concentration in the blood after administration

| Compound | bacterial load in macrophages ([1]; FIG. 1) | translocation of Mtb from the phagosome into the lysosome ([1]; at peak concentration in the micromolar range, depends on Abl) | bacterial load (CFU in the spleen) ([2]; 100 mg/kg/day alone) | amount of granulomatous lesions within the liver [3] | bacterial load in macrophages [3] | survival ([4]; latent infection for 6-10 weeks, daily treatment, FIG. 3B) | TB reactivation induced by SIV ([4]; latent infection) | concentration in the blood [5] [µM] | myelopoiesis (stem cells divide and differentiate along the myeloid lineage) [6] | numbers of innate immune cells in the blood and organs [6] | peak concentration [7] | time to peak concentration [7] [h] | bacterial load (CFU in the spleen) ([2]; rifabutin 2.5 mg/kg/day alone) |
| --- | --- | --- | --- | --- | --- | --- | --- | --- | --- | --- | --- | --- | --- |
| Cc1ccc(NC(=O)c2ccc(CN3CCN(C)CC3)cc2)cc1Nc1nccc(-c2cccnc2)n1 [imatinib, N-(4-methyl-3-((4-(pyridin-3-yl)pyrimidin-2-yl)amino)phenyl)-4-((4-methylpiperazin-1-yl)methyl)benzamide] | decreases bacterial load | induces translocation of Mtb | decrease in bacterial load | reduced the amount of granulomatous lesions | reduced bacterial load in macrophages | survived | prevents reactivation | ~0.1 | encourages the stem cells to divide and differentiate along the myeloid lineage | increase | micromolar range | ≤ 6 | – |
| CO[C@H]1/C=C/O[C@@]2(C)Oc3c(C)c(O)c4c(c3C2=O)C2=NC3(CCN(CC(C)C)CC3)NC2=C(NC(=O)/C(C)=C\C=C\[C@H](C)[C@H](O)[C@@H](C)[C@@H](O)[C@@H](C)[C@H](OC(C)=O)[C@@H]1C)C4=O [Rifabutin] | – | – | – | – | – | – | – | – | – | – | – | – | decrease in bacterial load |
